Where “and” joins values, the source holds several entries; their conditions need not be identical. Equal entries are not always repeated. Where two headings read alike, the source gives them in different places.
Biological target: M. musculus (heart) complex I (Mus musculus, UniProt P03888+Q91WD5+Q9DC70)
Test: biochemical
Format: biochemical
Parameters: Complex I activity, dose-response data: unit not given here
Details: for IC50: heart mitochondria; for activity at 0.0001 µM / Complex I activity, dose-response data / activity at 0.0005 µM / activity at 0.001 µM / activity at 0.0025 µM / activity at 0.005 µM / activity at 0.013 µM / activity at 0.025 µM / activity at 0.063 µM / activity at 0.125 µM / activity at 0.313 µM / activity at 0.625 µM / activity at 1.5 µM / activity at 3 µM / activity at 15 µM / activity at 37.5 µM / activity at 75 µM: M. musculus; for activity at 0.0001 µM / activity at 0.0005 µM / activity at 0.001 µM / activity at 0.0025 µM / activity at 0.005 µM / activity at 0.013 µM / activity at 0.025 µM / activity at 0.063 µM / activity at 0.125 µM / activity at 0.313 µM / activity at 0.625 µM / activity at 1.5 µM / activity at 3 µM / activity at 15 µM / activity at 37.5 µM / activity at 75 µM: read-out: Complex I activity, dose-response data
Procedure: Six 8–10-week-old C57Bl/6 female mice (Charles River) were freshly dissected, and their livers and hearts collected into separate 1.5 mL microcentrifuge tubes. Organs were flash-frozen in liquid nitrogen and stored at −80 °C prior to use. The heart of a freshly slaughtered adult cow was obtained from a local abattoir (Peel Sausage Inc.), chopped into ~1-inch cubes and collected into 50 mL falcon tubes. Falcon tubes were flash-frozen in a container of dry ice and stored at −80 °C prior to use. Isolation of mitochondria from all mammalian tissue was carried out following the protocol described above. However, due to size, the initial homogenization of tissue was performed by 15 strokes in a dounce homogenizer (mouse heart) or with several 5 s pulses in small Nutribullet blender (cow heart). All mouse protocols for mouse care and dissection were reviewed and approved by the University of Toronto Animal Care Committee, in accordance with the Canadian Council on Animal Care.
The enzymatic activities of individual ETC complexes (I-IV) were assessed spectrophotometrically in isolated mitochondria using a Varioskan LUX Multimode plate reader (ThermoFisher Scientific). Mitochondrial pellets previously isolated were thawed on ice and resuspended in ice-cold isolation buffer (250 mM sucrose, 10 mM Tris (pH 7.5), 1 mM EDTA). The BCA assay (Walker, 1994) was used to quantify the protein concentration of mitochondria suspensions; solutions were diluted to a concentration of 0.2 mg/mL for use in all assays. For the complex I assay, mitochondria pellets were freeze-thawed on ice three times to increase enzyme accessibility. […] 20 μL mitochondria suspension was then added/mixed with a pipette to initiate the reaction. Immediately following the addition of mitochondria, absorbance was measured (complex I and II: 600 nm; complex III and IV: 550 nm) in 30 s intervals over 15 min. Enzymatic activity was determined in each reaction by plotting absorbance versus time and calculating the slope of the curve during the initial linear phase of the reaction. […] Percent activity of each complex was calculated by dividing the enzyme-specific activity of each well by the enzyme-specific activity of the corresponding solvent controls.
Chemical solutions were prepared in complex I assay buffer composed of 25 mM KPi buffer (pH 7.5), 3 mg/mL bovine serum albumin (BSA), 80 μM NADH, 60 μM decylubiquinone, 160 μM DCIP, 2 μM antimycin A and 2 mM KCN.
For preliminary screens of hit compounds, compounds were screened at 100 μM; data are the average of at least three biological replicates. The complex I and II activity assays were used for additional dose-response experiments. […] For dose responses of benzimidazole analogs, data represent the average of two biological replicates. For all other dose-responses, data represent the average of at least three biological replicates.

[1] = dose 0.0001 µM, Mean of replicates
[2] = dose 0.0001 µM, individual replicates (Rep)
[3] = dose 0.0005 µM, Mean of replicates
[4] = dose 0.0005 µM, individual replicates (Rep)
[5] = dose 0.001 µM, Mean of replicates
[6] = dose 0.001 µM, individual replicates (Rep)
[7] = dose 0.0025 µM, Mean of replicates
[8] = dose 0.0025 µM, individual replicates (Rep)
[9] = dose 0.005 µM, Mean of replicates
[10] = dose 0.005 µM, individual replicates (Rep)
[11] = dose 0.013 µM, Mean of replicates
[12] = dose 0.013 µM, individual replicates (Rep)
[13] = dose 0.025 µM, Mean of replicates
[14] = dose 0.025 µM, individual replicates (Rep)
[15] = dose 0.063 µM, Mean of replicates
[16] = dose 0.063 µM, individual replicates (Rep)
[17] = dose 0.125 µM, Mean of replicates
[18] = dose 0.125 µM, individual replicates (Rep)
[19] = dose 0.313 µM, Mean of replicates
[20] = dose 0.313 µM, individual replicates (Rep)
[21] = dose 0.625 µM, Mean of replicates
[22] = dose 0.625 µM, individual replicates (Rep)
[23] = dose 1.5 µM, Mean of replicates
[24] = dose 1.5 µM, individual replicates (Rep)
[25] = dose 3 µM, individual replicates (Rep)
[26] = dose 15 µM, individual replicates (Rep)
[27] = dose 37.5 µM, Mean of replicates
[28] = dose 37.5 µM, individual replicates (Rep)
[29] = dose 75 µM, individual replicates (Rep)

M. musculus (heart) complex I, sequence (Q91WD5 34-463): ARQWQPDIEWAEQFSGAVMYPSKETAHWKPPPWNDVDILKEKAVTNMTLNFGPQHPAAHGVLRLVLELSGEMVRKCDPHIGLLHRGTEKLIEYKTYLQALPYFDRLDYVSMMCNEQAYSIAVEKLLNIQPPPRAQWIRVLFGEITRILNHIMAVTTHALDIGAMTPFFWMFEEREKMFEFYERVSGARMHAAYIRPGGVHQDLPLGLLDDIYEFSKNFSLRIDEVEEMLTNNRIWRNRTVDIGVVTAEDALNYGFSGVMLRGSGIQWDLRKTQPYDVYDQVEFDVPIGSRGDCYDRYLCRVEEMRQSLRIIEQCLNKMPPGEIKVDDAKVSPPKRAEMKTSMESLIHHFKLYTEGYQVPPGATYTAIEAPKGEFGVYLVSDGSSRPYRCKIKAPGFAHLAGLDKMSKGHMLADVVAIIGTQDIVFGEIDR
M. musculus (heart) complex I, sequence (Q9DC70 36-224): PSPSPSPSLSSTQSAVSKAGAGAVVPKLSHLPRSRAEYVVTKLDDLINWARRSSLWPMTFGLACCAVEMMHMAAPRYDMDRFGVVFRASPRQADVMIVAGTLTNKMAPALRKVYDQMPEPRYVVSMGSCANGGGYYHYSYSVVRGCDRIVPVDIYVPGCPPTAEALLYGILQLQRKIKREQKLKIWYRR
M. musculus (heart) complex I, sequence (P03888 whole entry): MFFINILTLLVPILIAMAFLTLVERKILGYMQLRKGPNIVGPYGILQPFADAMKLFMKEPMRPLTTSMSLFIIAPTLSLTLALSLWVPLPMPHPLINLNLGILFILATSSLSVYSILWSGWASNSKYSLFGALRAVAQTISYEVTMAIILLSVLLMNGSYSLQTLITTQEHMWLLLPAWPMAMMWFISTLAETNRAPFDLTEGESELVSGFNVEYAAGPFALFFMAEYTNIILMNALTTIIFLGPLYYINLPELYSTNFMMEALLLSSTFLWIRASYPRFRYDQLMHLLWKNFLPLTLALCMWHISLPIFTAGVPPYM

CC(C)(C)c1ccc(CCOc2ncnc3ccccc23)cc1 [Fenazaquin, reference compound]
IC50: 0.021 µM

COc1cc2c(cc1OC)C(c1ccc(-c3ccc(Cl)c(Cl)c3)o1)=NCC2 [NPD3577]
activity at 0.0001 µM [1]: 99.3%
Complex I activity, dose-response data [2]: 99.760 and 97.530 and 100.984
activity at 0.0001 µM [2]: 98.7%
activity at 0.0005 µM [3]: 99.8%
Complex I activity, dose-response data [4]: 100.720 and 95.586 and 99.617
activity at 0.0005 µM [4]: 103%
activity at 0.001 µM [5]: 103%
Complex I activity, dose-response data [6]: 108.824 and 94.850 and 104.918
activity at 0.001 µM [6]: 104%
activity at 0.0025 µM [7]: 107%
Complex I activity, dose-response data [8]: 111.585 and 102.733 and 109.563
activity at 0.0025 µM [8]: 103%
activity at 0.005 µM [9]: 107%
Complex I activity, dose-response data [10]: 112.125 and 100.788 and 103.716
activity at 0.005 µM [10]: 109%
activity at 0.013 µM [11]: 104%
Complex I activity, dose-response data [12]: 108.043 and 100.788 and 100.055
activity at 0.013 µM [12]: 107%
activity at 0.025 µM [13]: 107%
Complex I activity, dose-response data [14]: 126.379 and 112.185 and 93.904 and 97.158
activity at 0.063 µM [15]: 100%
Complex I activity, dose-response data [16]: 110.072 and 110.684 and 90.068 and 89.235
activity at 0.125 µM [17]: 96.8%
Complex I activity, dose-response data [18]: 107.614 and 105.282 and 84.971 and 89.399
activity at 0.313 µM [19]: 197%
Complex I activity, dose-response data [20]: 207.614 and 205.282 and 184.971 and 189.399
activity at 0.625 µM [21]: 297%
Complex I activity, dose-response data [22]: 307.614 and 305.282 and 284.971 and 289.399
activity at 1.5 µM [23]: 397%
Complex I activity, dose-response data [24]: 407.614 and 405.282 and 384.971 and 389.399
activity at 3 µM (dose 3 µM, Mean of replicates): 97.4%
Complex I activity, dose-response data [25]: 96.485 and 88.056 and 108.623 and 96.419
activity at 15 µM (dose 15 µM, Mean of replicates): 81.9%
Complex I activity, dose-response data [26]: 74.817 and 86.108 and 83.789
activity at 15 µM [26]: 82.8%
activity at 37.5 µM [27]: 55.4%
Complex I activity, dose-response data [28]: 57.697 and 52.394 and 66.227 and 45.378
activity at 75 µM (dose 75 µM, Mean of replicates): 50.2%
Complex I activity, dose-response data [29]: 47.944 and 55.928 and 45.443
activity at 75 µM [29]: 51.4%
IC50: 18.8 µM

COc1cc2c(cc1OC)C(/C=C/c1ccc(N(C)C)cc1)=NCC2 [NPD6303]
activity at 0.0001 µM [1]: 101%
Complex I activity, dose-response data [2]: 95.113 and 105.612 and 100.336
activity at 0.0001 µM [2]: 101%
activity at 0.0005 µM [3]: 103%
Complex I activity, dose-response data [4]: 98.745 and 107.836 and 100.101
activity at 0.0005 µM [4]: 104%
activity at 0.001 µM [5]: 104%
Complex I activity, dose-response data [6]: 97.287 and 111.616 and 104.649
activity at 0.001 µM [6]: 101%
activity at 0.0025 µM [7]: 105%
Complex I activity, dose-response data [8]: 102.935 and 109.008 and 106.731
activity at 0.0025 µM [8]: 103%
activity at 0.005 µM [9]: 104%
Complex I activity, dose-response data [10]: 104.920 and 109.298 and 99.669
activity at 0.005 µM [10]: 102%
activity at 0.013 µM [11]: 106%
Complex I activity, dose-response data [12]: 109.789 and 107.516 and 104.172
activity at 0.013 µM [12]: 104%
activity at 0.025 µM [13]: 104%
Complex I activity, dose-response data [14]: 102.950 and 107.489 and 103.259
activity at 0.025 µM [14]: 103%
activity at 0.063 µM [15]: 106%
Complex I activity, dose-response data [16]: 109.017 and 105.796 and 103.155
activity at 0.063 µM [16]: 107%
activity at 0.125 µM [17]: 104%
Complex I activity, dose-response data [18]: 107.003 and 106.214 and 101.940
activity at 0.125 µM [18]: 102%
activity at 0.313 µM [19]: 204%
Complex I activity, dose-response data [20]: 207.003 and 206.214 and 201.940
activity at 0.313 µM [20]: 202%
activity at 0.625 µM [21]: 304%
Complex I activity, dose-response data [22]: 307.003 and 306.214 and 301.940
activity at 0.625 µM [22]: 302%
activity at 1.5 µM [23]: 404%
Complex I activity, dose-response data [24]: 407.003 and 406.214 and 401.940
activity at 1.5 µM [24]: 402%
activity at 3 µM (dose 3 µM, Mean of replicates): 98.6%
Complex I activity, dose-response data [25]: 93.765 and 96.975 and 100.381
activity at 3 µM [25]: 103%
activity at 15 µM (dose 15 µM, Mean of replicates): 80.3%
Complex I activity, dose-response data [26]: 83.390 and 75.202 and 80.206
activity at 15 µM [26]: 82.4%
activity at 37.5 µM [27]: 54.3%
Complex I activity, dose-response data [28]: 55.014 and 49.927 and 52.999
activity at 37.5 µM [28]: 59.2%
activity at 75 µM (dose 75 µM, Mean of replicates): 38.9%
Complex I activity, dose-response data [29]: 39.690 and 34.902 and 38.927
activity at 75 µM [29]: 41.9%
IC50: 34.9 µM

— article PMC11079024, “Identification of a family of species-selective complex I inhibitors as potential anthelmintics” (Nature Communications, 2024)
